From ChEMBL document CHEMBL5726081, “Therapeutic inhibitory compounds” (2017)
pIC50: −log10 of the molar value.

Biological target: Plasma kallikrein (Homo sapiens, UniProt P03952)
Experiment: In Vitro Enzyme Inhibition Assay: The ability of the compounds disclosed herein to inhibit human plasma kallikrein activity was quantified according to the procedures below.A 10 mM solution of the test compound was made in DMSO. […] A control tube containing only DMSO is included. […] 50 μL was removed from this mixture and placed into duplicate wells on a Microfluor 1Black U-bottom microtiter plate (Thermo Scientific). This plate was incubated for 5 minutes at 37° C. To each well, 50 μL of pre-warmed 2×PFR-AMC was added to start the enzymatic reaction. Cleavage of PFR-AMC was monitored in a Biotek Synergy H4 reader set at 37° C. Readings are taken every 43 seconds for 1 hour.

Sequence of Plasma kallikrein (P03952 20-390 limits assumed): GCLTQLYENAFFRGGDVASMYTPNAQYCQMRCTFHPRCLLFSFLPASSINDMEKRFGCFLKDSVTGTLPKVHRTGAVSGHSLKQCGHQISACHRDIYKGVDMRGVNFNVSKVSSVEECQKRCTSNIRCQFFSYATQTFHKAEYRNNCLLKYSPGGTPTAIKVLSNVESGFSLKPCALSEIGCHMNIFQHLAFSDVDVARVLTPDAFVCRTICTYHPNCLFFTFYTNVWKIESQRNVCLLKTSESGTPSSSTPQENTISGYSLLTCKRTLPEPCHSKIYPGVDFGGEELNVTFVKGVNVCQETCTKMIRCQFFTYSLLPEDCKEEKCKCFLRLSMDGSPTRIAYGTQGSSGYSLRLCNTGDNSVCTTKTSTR
Sequence of Plasma kallikrein (P03952 391-638 limits assumed): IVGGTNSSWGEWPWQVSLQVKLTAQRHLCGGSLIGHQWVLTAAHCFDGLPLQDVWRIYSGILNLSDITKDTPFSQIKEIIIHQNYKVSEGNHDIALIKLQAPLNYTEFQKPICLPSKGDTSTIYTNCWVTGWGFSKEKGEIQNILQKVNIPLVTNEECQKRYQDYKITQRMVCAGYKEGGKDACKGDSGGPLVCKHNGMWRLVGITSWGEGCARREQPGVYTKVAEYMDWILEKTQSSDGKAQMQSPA

Row | Structure (SMILES) | pIC50
1 | Cc1nc(N)ccc1CNC(=O)c1ccnc(Cc2cc(C#N)c3ncc(Cl)cc3c2)c1 | > 7.00
2 | N#Cc1ccc2cc(Cc3cc(C(=O)NCc4cc5c(Cl)c[nH]c5cc4F)ccn3)ccc2n1 | > 7.00
